Source: patent US11987586B1 (TAKEDA PHARMACEUTICAL COMPANY LIMITED, priority 2022, dated 2024)

target: T1, human OX2 receptor (Homo sapiens, UniProt O43614); experiment: Measurement of orexin type 2 receptor agonist activity (calcium fluorescence, Fluo-4, FDSS); type: cell-based; conditions: 3 uM test compound; CHO cells expressing human OX2 receptor; DMSO = 0%, 10 nM orexin A (human) = 100%
T1 construct: expressed in transfected cells
T1 sequence (O43614 1-444): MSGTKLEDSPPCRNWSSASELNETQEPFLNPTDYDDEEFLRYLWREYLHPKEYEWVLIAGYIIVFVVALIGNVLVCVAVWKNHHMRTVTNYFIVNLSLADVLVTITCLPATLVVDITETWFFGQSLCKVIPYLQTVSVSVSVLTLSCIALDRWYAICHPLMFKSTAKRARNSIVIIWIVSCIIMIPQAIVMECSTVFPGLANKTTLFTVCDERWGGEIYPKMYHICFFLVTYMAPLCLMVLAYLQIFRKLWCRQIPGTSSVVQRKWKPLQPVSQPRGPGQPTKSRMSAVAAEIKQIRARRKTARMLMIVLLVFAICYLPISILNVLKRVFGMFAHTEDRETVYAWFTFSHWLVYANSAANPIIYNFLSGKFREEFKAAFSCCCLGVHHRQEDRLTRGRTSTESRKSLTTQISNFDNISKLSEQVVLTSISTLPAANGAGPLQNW
Summary of the method: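 Agonist activity (%) was normalised to the response to 10 nM final human orexin A (100%) and to the DMSO vehicle (0%). The response was measured as the Fluo-4 calcium signal, read kinetically over 1 min 40 s after compound addition to Fluo-4/probenecid-loaded stable CHO-K1 clones expressing human OX2 (aa 1-444).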

| Compound | OX2R agonist activity (3 uM, %) |
| --- | --- |
| COc1cc(-c2c(F)cc(F)cc2F)c2c(N3CC[C@H]4N(C[C@@H](NS(=O)(=O)C5CC5)C4(F)F)C3=O)noc2n1 [Example 308, N-{(4aR,6R)-5,5-difluoro-2-[6-methoxy-4-(2,4,6-trifluorophenyl)[1,2]oxazolo[5,4-b]pyridin-3-yl]-1-oxooctahydropyrrolo[1,2-c]pyrimidin-6-yl}cyclopropanesulfonamide] | 100% |
| CCS(=O)(=O)N[C@@H]1Cn2c(cn(-c3noc4nc(OC)cc(-c5c(F)cc(F)cc5F)c34)c2=O)C1(F)F [Example 309, N-{(6R)-7,7-difluoro-2-[6-methoxy-4-(2,4,6-trifluorophenyl)[1,2]oxazolo[5,4-b]pyridin-3-yl]-3-oxo-2,5,6,7-tetrahydro-3H-pyrrolo[1,2-c]imidazol-6-yl}ethanesulfonamide] | 107% |
| CNS(=O)(=O)N[C@@H]1CN2C(=O)N(c3noc4cc(F)cc(-c5c(F)cccc5F)c34)C[C@@H]2C1(F)F [Example 310, N-{(6R,7aR)-2-[4-(2,6-difluorophenyl)-6-fluoro-1,2-benzoxazol-3-yl]-7,7-difluoro-3-oxohexahydro-1H-pyrrolo[1,2-c]imidazol-6-yl}-N′-methylsulfuric diamide] | 100% |
| CCS(=O)(=O)N[C@@H]1CN2C(=O)N(c3noc4cc(F)c(F)c(-c5c(F)cccc5F)c34)CC[C@@H]2C1(F)F [Example 311, N-{(4aR,6R)-2-[4-(2,6-difluorophenyl)-5,6-difluoro-1,2-benzoxazol-3-yl]-5,5-difluoro-1-oxooctahydropyrrolo[1,2-c]pyrimidin-6-yl}ethanesulfonamide] | 99% |
| O=C1N(c2noc3cc(F)c(F)c(-c4c(F)cccc4F)c23)CC[C@H]2N1C[C@@H](NS(=O)(=O)C1CC1)C2(F)F [Example 312, N-{(4aR,6R)-2-[4-(2,6-difluorophenyl)-5,6-difluoro-1,2-benzoxazol-3-yl]-5,5-difluoro-1-oxooctahydropyrrolo[1,2-c]pyrimidin-6-yl}cyclopropanesulfonamide] | 100% |
| O=C1N(c2noc3cc(F)c(F)c(-c4c(F)cccc4F)c23)CC[C@H]2N1C[C@@H](NS(=O)(=O)CF)C2(F)F [Example 313, N-{(4aR,6R)-2-[4-(2,6-difluorophenyl)-5,6-difluoro-1,2-benzoxazol-3-yl]-5,5-difluoro-1-oxooctahydropyrrolo[1,2-c]pyrimidin-6-yl}-1-fluoromethanesulfonamide] | 99% |
| CS(=O)(=O)N[C@@H]1CN2C(=O)N(c3noc4cc(F)cc(-c5c(F)cccc5F)c34)CC[C@@H]2C1(F)F [Example 314, N-{(4aR,6R)-2-[4-(2,6-difluorophenyl)-6-fluoro-1,2-benzoxazol-3-yl]-5,5-difluoro-1-oxooctahydropyrrolo[1,2-c]pyrimidin-6-yl}methanesulfonamide] | 113% |
| CCS(=O)(=O)N[C@@H]1CN2C(=O)N(c3noc4nc(OC)cc(-c5c(F)cc(F)cc5F)c34)CC[C@@H]2C1(F)F [Example 315, N-{(4aR,6R)-5,5-difluoro-2-[6-methoxy-4-(2,4,6-trifluorophenyl)[1,2]oxazolo[5,4-b]pyridin-3-yl]-1-oxooctahydropyrrolo[1,2-c]pyrimidin-6-yl}ethanesulfonamide] | 105% |
| O=C1N(c2noc3cc(OC(F)F)cc(-c4c(F)cc(F)cc4F)c23)CC[C@H]2N1C[C@@H](NS(=O)(=O)C1CC1)C2(F)F [Example 316, N-{(4aR,6R)-2-[6-(difluoromethoxy)-4-(2,4,6-trifluorophenyl)-1,2-benzoxazol-3-yl]-5,5-difluoro-1-oxooctahydropyrrolo[1,2-c]pyrimidin-6-yl}cyclopropanesulfonamide] | 105% |
| CS(=O)(=O)N[C@H]1C[C@H]2CCN(c3noc4cccc(-c5c(F)cccc5F)c34)C(=O)N2C1 [Example 317, N-{(4aR,6S)-2-[4-(2,6-difluorophenyl)-1,2-benzoxazol-3-yl]-1-oxooctahydropyrrolo[1,2-c]pyrimidin-6-yl}methanesulfonamide] | 110% |
| O=C1N(c2noc3cc(F)cc(-c4ncc(F)cc4F)c23)CC[C@H]2N1C[C@@H](NS(=O)(=O)C1CC1)C2(F)F [Example 318, N-{(4aR,6R)-2-[4-(3,5-difluoropyridin-2-yl)-6-fluoro-1,2-benzoxazol-3-yl]-5,5-difluoro-1-oxooctahydropyrrolo[1,2-c]pyrimidin-6-yl}cyclopropanesulfonamide] | 105% |
| O=C1N(c2noc3cccc(-c4ncc(F)cc4F)c23)CC[C@H]2N1C[C@@H](NS(=O)(=O)C1CC1)C2(F)F [Example 319, N-{(4aR,6R)-2-[4-(3,5-difluoropyridin-2-yl)-1,2-benzoxazol-3-yl]-5,5-difluoro-1-oxooctahydropyrrolo[1,2-c]pyrimidin-6-yl}cyclopropanesulfonamide] | 107% |
| CS(=O)(=O)N[C@@H]1CN2C(=O)N(c3noc4cccc(-c5ncc(F)cc5F)c34)CC[C@@H]2C1(F)F [Example 320, N-{(4aR,6R)-2-[4-(3,5-difluoropyridin-2-yl)-1,2-benzoxazol-3-yl]-5,5-difluoro-1-oxooctahydropyrrolo[1,2-c]pyrimidin-6-yl}methanesulfonamide] | 104% |
| CCS(=O)(=O)N[C@@H]1CN2C(=O)N(c3noc4cccc(-c5ncc(F)cc5F)c34)CC[C@@H]2C1(F)F [Example 321, N-{(4aR,6R)-2-[4-(3,5-difluoropyridin-2-yl)-1,2-benzoxazol-3-yl]-5,5-difluoro-1-oxooctahydropyrrolo[1,2-c]pyrimidin-6-yl}ethanesulfonamide] | 108% |
| CCS(=O)(=O)N[C@@H]1CN2C(=O)N(c3noc4cccc(-c5ccccc5OC)c34)CC[C@@H]2C1(F)F [Example 322, N-{(4aR,6R)-5,5-difluoro-2-[4-(2-methoxyphenyl)-1,2-benzoxazol-3-yl]-1-oxooctahydropyrrolo[1,2-c]pyrimidin-6-yl}ethanesulfonamide] | 99% |
| CCS(=O)(=O)N[C@@H]1CN2C(=O)N(c3noc4cccc(-c5ccc(F)cc5C)c34)CC[C@@H]2C1(F)F [Example 323, N-{(4aR,6R)-5,5-difluoro-2-[4-(4-fluoro-2-methylphenyl)-1,2-benzoxazol-3-yl]-1-oxooctahydropyrrolo[1,2-c]pyrimidin-6-yl}ethanesulfonamide] | 97% |
| CCS(=O)(=O)N[C@@H]1CN2C(=O)N(c3noc4cccc(-c5ccco5)c34)CC[C@@H]2C1(F)F [Example 324, N-{(4aR,6R)-5,5-difluoro-2-[4-(furan-2-yl)-1,2-benzoxazol-3-yl]-1-oxooctahydropyrrolo[1,2-c]pyrimidin-6-yl}ethanesulfonamide] | 97% |
| CCS(=O)(=O)N[C@@H]1CN2C(=O)N(c3noc4cccc(-c5ccccc5C)c34)CC[C@@H]2C1(F)F [Example 325, N-{(4aR,6R)-5,5-difluoro-2-[4-(2-methylphenyl)-1,2-benzoxazol-3-yl]-1-oxooctahydropyrrolo[1,2-c]pyrimidin-6-yl}ethanesulfonamide] | 101% |
